This is an account of results in PMC10404626 (The Journal of Biological Chemistry, 2023).

The structures appear in SMILES notation. Read-outs that look alike come from different tables or passages of the source.

Assay [1] addresses T1, Btbc1 (bovine heart mitochondrial cyt bc1, Complex III) (Bos taurus, UniProt P00157+P13272). The conditions noted are these: cited from earlier work; for incubation time to reach full inhibitory capacity: classic compounds, typical.
The target of assay [2] is T2, Rsbc1 (cyt bc1 from Rhodobacter sphaeroides) (Cereibacter sphaeroides, UniProt Q02761+Q02762).
T2 sequence (Q02761 1-445): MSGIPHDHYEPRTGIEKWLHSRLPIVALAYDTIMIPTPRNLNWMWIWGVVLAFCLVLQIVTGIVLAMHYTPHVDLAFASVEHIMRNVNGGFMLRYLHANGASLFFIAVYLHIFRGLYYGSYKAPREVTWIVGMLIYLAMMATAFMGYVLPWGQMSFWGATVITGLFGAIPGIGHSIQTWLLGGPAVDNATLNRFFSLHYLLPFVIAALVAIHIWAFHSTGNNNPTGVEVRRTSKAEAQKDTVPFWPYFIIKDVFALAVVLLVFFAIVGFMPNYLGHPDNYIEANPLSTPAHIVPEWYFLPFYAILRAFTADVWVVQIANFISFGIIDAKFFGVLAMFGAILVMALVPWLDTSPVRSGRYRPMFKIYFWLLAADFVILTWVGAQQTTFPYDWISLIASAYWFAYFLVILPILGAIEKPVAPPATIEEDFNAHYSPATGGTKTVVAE
T2 sequence (Q02762 1-187): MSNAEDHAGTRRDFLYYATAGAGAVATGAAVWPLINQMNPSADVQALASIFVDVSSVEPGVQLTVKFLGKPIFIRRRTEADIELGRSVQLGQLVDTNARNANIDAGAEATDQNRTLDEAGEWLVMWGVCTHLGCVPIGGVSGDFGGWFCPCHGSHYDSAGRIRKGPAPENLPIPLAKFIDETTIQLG
T2 sequence (Q02760 23-285 partner): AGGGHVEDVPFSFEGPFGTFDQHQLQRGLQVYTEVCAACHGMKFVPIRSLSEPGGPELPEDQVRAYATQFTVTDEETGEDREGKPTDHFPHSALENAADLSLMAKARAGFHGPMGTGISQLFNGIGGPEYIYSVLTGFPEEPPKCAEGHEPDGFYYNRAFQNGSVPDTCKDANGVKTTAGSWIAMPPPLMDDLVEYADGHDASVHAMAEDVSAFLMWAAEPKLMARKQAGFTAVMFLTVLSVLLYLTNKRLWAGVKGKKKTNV
The conditions noted are these: read-out: half-maximum inhibition (IC50); previous work; cited from earlier work.

In assay [3] the test system is yeast cyt b L275F mutation. To be noted: cited from earlier work.
Assay [4] deals with T1, Btbc1 (bovine heart mitochondrial cyt bc1, Complex III). The experiment in a line: Inhibition of bovine heart mitochondrial cyt bc1 activity. The assay is classed as biochemical. To be noted: IC50, incubation time 5 minutes; cyt c reduction.
Assay [5] has as its system wild-type P. falciparum-infected erythrocytes. The conditions noted are these: cited from earlier work.
Assay [6] relates to P. falciparum cyt b mutant parasites (F264L, A122T, Y268S). To be noted: cyt b Y268S mutant parasites of the 106/1 line; cited from earlier work.

As for `C[C@@]1(c2ccc(Oc3ccccc3)cc2)OC(=O)N(Nc2ccccc2)C1=O` (racemic) [famoxadone], the IC50 was 418 nM in assay [1] (read-out: half-maximum inhibition (IC50), previous work) and 1.4 nM in assay [2]. Moreover, in assay [3], the “reduction in the IC50 value” is recorded as 20 fold.

Consider `CCCCCCCCCCCC1=C(O)C(=O)c2scnc2C1=O` [UHDBT, 5-n-undecyl-6-hydroxy-4,7-dioxobenzothiazole], for which the “incubation time to reach full inhibitory capacity” value in assay [1] is listed as “less than 5 min”.

For `O=C1C(O)=C([C@H]2CC[C@H](c3ccc(Cl)cc3)CC2)C(=O)c2ccccc21` [atovaquone], the IC50 was 2630 nM in assay [4] and ~13 nM in assay [5] (P. falciparum wild-type lines). Further, the EC50 is 1.1 nM in assay [5] (wild-type parasites of the 106/1 line) and > 6760 nM in assay [6].

Turning to `CO/C(=C/C(N)=O)[C@H](C)[C@H](/C=C/c1csc(-c2csc([C@@H](C)/C=C/C=C/C(C)C)n2)n1)OC` [myxothiazol], the “incubation time to reach full inhibitory capacity” value in assay [1] is “less than 5 min”.

For the molecule `C/C=C(C)/C=C/C=C/[C@H](OC)[C@@H](C)[C@@H](OC)[C@@H](C)CCc1oc2c(O)c(OC)cc(OC)c2c(=O)c1C` [stigmatellin], the IC50 in assay [4] was 1 nM. The “incubation time to reach full inhibitory capacity” value in assay [1] is “less than 5 min”.

Broadly, the IC50 is the midpoint of a concentration-inhibition curve. In general, EC50 refers to the concentration giving half of the maximal effect.
